Assay results as given in US10590422B2, “Anticancer therapeutic intervention” (PHYZAT BIOPHARMACEUTICALS, LDA., priority 2017, dated 2020).

Legend:
[1] = test system: LAT1; assay: LAT1 activity: [^14C]-L-leucine uptake in fibrosarcoma HT-1080 cells after LAT1 gene silencing; type: cell-based, human; settings: 5 nM siRNA, treatment 6 h, at 48 h, 0.4% Lipofectamine 2000, FIG. 8A
Experimental: (§1) Cells were plated in 24-well plates (Sarstedt, Germany) and grown until confluence was reached. On the day of the experiment, cell culture medium was aspirated and cells were preincubated for 15 min in Hanks' medium (NaCl 140 mM, KCl 5 mM, MgSO4.7H2O 0.8 mM, K2HPO4 0.33 mM, KH2PO4 0.44 mM, MgCl2.6H2O 1 mM, CaCl2) 0.025 mM, Tris-HCl 9.75 mM, pH 7.4). Uptake was initiated by addition of Hanks' medium with 0.25 μM [^14C]-L-leucine in the absence and in the presence of 3 mM unlabeled L-leucine. During preincubation and incubation cells were continuously shaken and maintained at 37° C. Uptake was terminated after 1 min by rapid removal of uptake solution by means of a vacuum pump connected to a Pasteur pipette, followed by a rapid wash with Hanks' medium. Subsequently, cells were solubilized in 0.1% vol/vol Triton X-100 (dissolved in 5 mM Tris-HCl, pH 7.4), and radioactivity was measured by liquid scintillation counting.
(§2) Cells were plated in 24-well (Sarstedt, Germany) or 6-well plates (Sarstedt, Germany) or 96-well plates with black walls clear bottom (BD Biosciences, USA) and incubated 24 h under normal growth conditions. siRNAs against LAT1 and transfection agent were diluted at desired concentrations and mixed according to transfection agent manufacturer's instructions. The mixture was incubated 20 min at RT for siRNA-complex formation, after which it was added to the cells and incubated at 37° C., 5% CO2. After the incubation period, serum and antibiotic was restored and cells were further incubated at normal conditions for the desired time points until evaluation of LAT1 activity or LAT1 expression (immunoblotting and RT-qPCR).

[2] = test system: LAT1 mRNA; assay: LAT1 gene expression (RT-qPCR) after LAT1 gene silencing in human colon cancer HTC-116 cells; type: cell-based; settings: treatment 6 h
Experimental: (§3) SK-HEP-1, T24, HT-1080 and HCT-116 cell lines were maintained in a humidified atmosphere of 5% CO2 at 37° C. SK-HEP-1 cells were grown in RPMI-1640 (Sigma, St. Louis, Mo.) supplemented with 20% fetal bovine serum (FBS) (Gibco, UK), 100 U/mL penicillin G, 0.25 μg/mL amphotericin B, 100 μg/mL streptomycin (Gibco, UK), 25 mM sodium bicarbonate (Merck, Germany) and 25 mM N-2-hydroxyethylpiperazine-N′-2-ethanosulfonic acid (HEPES) (Sigma, St. Louis, Mo.). T24 and HT-1080 cells were grown, respectively, in Dulbecco's Modified Eagle's Medium (DMEM)—high glucose (Sigma, St. Louis, Mo.) and DMEM—low glucose (Sigma, St. Louis, Mo.), supplemented with 10% FBS (Gibco, UK), 100 U/mL penicillin G, 0.25 μg/mL amphotericin B, 100 μg/mL streptomycin (Gibco, UK), 25 mM sodium bicarbonate (Merck, Germany) and 25 mM HEPES (Sigma, St. Louis, Mo.). HCT-116 cells were grown in McCoy's 5A (Sigma, St. Louis, Mo.) supplemented with 10% FBS (Gibco, UK), 100 U/mL penicillin G, 0.25 μg/mL amphotericin B, 100 μg/mL streptomycin (Gibco, UK), 25 mM sodium bicarbonate (Merck, Germany) and 25 mM HEPES (Sigma, St. Louis, Mo.). For all cell lines the medium was changed every 2 days, and cells reached confluence 3-4 days after initial seeding. For subculturing, cells were dissociated with 0.25% trypsin-ethylenediaminetetraacetic acid (EDTA) (Sigma, St. Louis, Mo.), split 1:15 or 1:20 and subcultured in a 21-cm^2 growth area (Sarstedt, Germany).
(§4) Total RNA was isolated and purified using the SV Total RNA Isolation System (Promega, USA) according to manufacturer's instructions. RNA quality and concentration were verified in the NanoDrop ND1000 Spectrophotometer (Thermo Scientific, USA), and RNA integrity and genomic DNA contamination were evaluated by agarose gel electrophoresis. Total RNA (1 μg) was converted into cDNA using the Maxima Scientific First Strand cDNA Synthesis Kit for RT-qPCR (Thermo Scientific, USA), according to instructions. The following protocol was used: 1st step, 10 min at 25° C.; 2nd step, 15 min at 50° C.; 3rd step, 5 min at 85° C. cDNA was used for qPCR analysis using Maxima SYBR Green qPCR Master Mix (Thermo Scientific, USA) in the StepOnePlus instrument (Applied Biosystems, USA). QuantiTect Primer Assay for LAT1 and ASCT2 and for the endogenous control gene GAPDH (Quiagen, Germany) were used. The qPCR reaction was performed in 96-well PCR plates (Sarstedt, Germany) as follows: one cycle of 10 min at 95° C., followed by 40 PCR cycles at 95° C. 15 s and 60° C. 60 s. […] No template controls were always evaluated for each target gene. Quantification cycle (Cq) values were generated automatically by the StepOnePlus 2.3 Software and the ratio of the target gene was expressed in comparison to the endogenous control gene GAPDH.
as §2

[3] = test system: human colon cancer HTC-116 cells; assay: Cell proliferation assay (calcein-AM) in human colon cancer HTC-116 cells; type: cell-based; settings: for cell proliferation / proliferation: treatment 6 h; for cell proliferation: 72 h exposure; for proliferation: at 72 h, 0.17% Lipofectamine 2000 or 0.1% Injectin, FIGS. 19B and 20B
Experimental: as §3
Cell proliferation was measured using calcein-AM (Thermo Fisher Scientific, USA). The membrane permeant calcein-AM, a nonfluorescent dye, is taken up and converted by intracellular esterases to membrane impermeant calcein, which emits green fluorescence. Cells were plated in 96-well plates with black walls clear bottom (BD Biosciences, USA) and incubated 24 h under normal growth conditions. Cells were incubated with test items at 37° C., 5% C02. After the incubation period, serum and antibiotic was restored and cells were further incubated at normal conditions during 72 h. After treatment with test substances or vehicle, cells were washed twice with Hanks' medium and loaded with 2 μM calcein-AM in Hanks' medium, at 37° C. for 30 min. Fluorescence was measured at 485 nm excitation and 530 nm emission wavelengths in a microplate spectrofluorometer (Gemini EM, Molecular Devices). Nine consecutive fluorescence measurements are performed per well, to allow fluorescence readings in the whole area of the well, which was then considered for the calculation of mean fluorescence per well. To determine minimum staining for calcein (calceinmin), eight wells were treated with ethanol 30 min before calcein-AM addition. The percent cell number is calculated as [(calceinsample)/(calceincontrol)]×100.

[4] = test system: ASCT2 mRNA; assay: ASCT2 gene expression (RT-qPCR, relative to GAPDH) after ASCT2 gene silencing in SK-HEP-1 cells; type: cell-based, human; settings: at 24 h; for ASCT2 mRNA relative abundance: liver carcinoma SK-HEP-1 cells, 10 nM siRNA, treatment 6 h, 0.5% Lipofectamine 2000, FIG. 4B
Experimental: as §3, §4
as §2, with “ASCT2” for “LAT1”

[5] = test system: ASCT2; assay: ASCT2 activity: [^14C]-L-alanine uptake in SK-HEP-1 cells after ASCT2 gene silencing; type: cell-based, human; settings: ASCT2 siRNA; general statement, conditions not given
Experimental: as §1, with “the experiment, Cell culture medium” for “the experiment, cell culture medium”, “Hanks' medium (ChCl 140 mM,” for “Hanks' medium (NaCl 140 mM,”, “initiated by the addition of” for “initiated by addition of”, “0.25 μM [^14C]-L-alanine in the” for “0.25 μM [^14C]-L-leucine in the”, “mM unlabeled L-alanin. During preincubation” for “mM unlabeled L-leucine. During preincubation”
as §2, with “ASCT2” for “LAT1”

[6] = test system: ASCT2; assay: ASCT2 activity: [^14C]-L-alanine uptake in fibrosarcoma HT-1080 cells after ASCT2 gene silencing; type: cell-based, human; settings: fibrosarcoma HT-1080 cells; 5 nM siRNA; treatment 6 h; at 48 h; 0.4% Lipofectamine 2000; FIG. 8B
Experimental: as §1, with “the experiment, Cell culture medium” for “the experiment, cell culture medium”, “Hanks' medium (ChCl 140 mM,” for “Hanks' medium (NaCl 140 mM,”, “initiated by the addition of” for “initiated by addition of”, “0.25 μM [^14C]-L-alanine in the” for “0.25 μM [^14C]-L-leucine in the”, “mM unlabeled L-alanin. During preincubation” for “mM unlabeled L-leucine. During preincubation”
as §2, with “ASCT2” for “LAT1”

[7] = test system: ASCT2 mRNA; assay: ASCT2 gene expression (RT-qPCR) after ASCT2 gene silencing in human colon cancer HTC-116 cells; type: cell-based; settings: treatment 6 h
Experimental: as §3, §4
as §2, with “ASCT2” for “LAT1”

[8] = 5 or 25 nM siRNA, at 24 h or 48 h, 0.5% Lipofectamine 2000, FIGS. 9A and 9C
[9] = 72 h, 0.17% Lipofectamine 2000 or 0.1% Injectin, FIG. 19A
[10] = 5 or 25 nM siRNA, at 24 h or 48 h, 0.5% Lipofectamine 2000, FIGS. 9B and 9C
[11] = 72 h, 0.17% Lipofectamine 2000 or 0.1% Injectin, FIG. 20A

| Substance | [^14C]-L-leucine (0.25 μM) uptake at initial rate of uptake (1 min) [1] | LAT1 mRNA relative abundance [2, 8] | LAT1 mRNA relative abundance [2, 9] | cell proliferation ([3]; 0.1% Injectin, FIG. 14) | proliferation [3] | ASCT2 mRNA relative abundance [4] | inhibiting sodium-independent [^14C]-L-leucine transport [5] | [^14C]-L-alanine (0.25 μM) uptake at initial rate of uptake (1 min) [6] | ASCT2 mRNA relative abundance [7, 10] | ASCT2 mRNA relative abundance [7, 11] | further results |
| --- | --- | --- | --- | --- | --- | --- | --- | --- | --- | --- | --- |
| 58/162/411 (sense CUUCGCCACCUACCUGCUCAA; antisense UUGAGCAGGUAGGUGGCGAAG; chemistry not given here) | decreased | decreased | significantly decreased | decreased | significantly decreased | – | – | – | – | – | – |
| 61/165/396 (sense CGUGAACUGCUACAGCGUGAA; antisense UUCACUCUGUAGCAGUUCACG; chemistry not given here) | decreased | decreased | significantly decreased | decreased | significantly decreased | – | – | – | – | – | – |
| 61/391/392 (chain 1 CGUGAACUGCUACAGCGUGAATT; chain 2 UUCACUCUGUAGCAGUUCACGTT; siRNA; sugars by position and backbone not given here; further chemistry not fully specified) | decreased | decreased | significantly decreased | decreased | significantly decreased | – | – | – | – | – | Effect of 5-fluoruracil upon proliferation in combination with the siRNA ([3]; 5-FU 10 μM, siRNA 25 nM, 72 h, 0.037% Injectin, FIG. 17A): not |
| 225 (AATAATGGCGTGGCCAAGCAC; chemistry not given here) [compound 225] | – | – | – | – | – | decreased | particularly effective | – | – | – | – |
| 237 (AATTACGTGGACCGTACGGAG; chemistry not given here) [compound 237] | – | – | – | – | – | decreased | particularly effective | – | – | – | – |
| 267 (CCGGTCCTGTACCGTCCTCAA; chemistry not given here) [compound 267] | – | – | – | – | – | decreased | particularly effective | – | – | – | – |
| 267/356/402 (sense CCGGUCCUGUACCGUCCUCAA; antisense UUGAGGACGGUACAGGACCGG; chemistry not given here) | – | – | – | decreased | significantly decreased | – | – | decreased | decreased | significantly decreased | – |
| 267/397/398 (sense CCGGUCCUGUACCGUCCUCAATT; antisense UUGAGGACGGUACAGGACCGGTT; siRNA; sugars by position and backbone not given here; further chemistry not fully specified) | – | – | – | decreased | significantly decreased | – | – | decreased | decreased | significantly decreased | Effect on cell proliferation compared with SEQ ID NO: 267/356/402 ([3]; 72 h, 0.1% Injectin, p<0.05): significantly greater; Effect of siRNA-LAT1 SEQ ID NO: 58/387/388 upon proliferation in combination with the siRNA-ASCT2 ([3]; 72 h, siRNA-ASCT2 at non-efficacious conditions (0.037% Injectin), FIG. 18): enhanced; cell proliferation ([3]; increasing Injectin (0.037% to 0.15%), FIG. 15): decreased |
| 278 (TGCCACGGTCGCCTCTGAGAA; chemistry not given here) [compound 278] | – | – | – | – | – | decreased | particularly effective | – | – | – | Effect on ASCT2 mRNA relative abundance compared with SEQ ID NO: 267 ([4]; SK-HEP-1 cells, 10 nM, p<0.05): significantly greater |
| 278/367/408 (sense UGCCACGGUCGCCUCUGAGAA; antisense UUCUCAGAGGCGACCGUGGCA; chemistry not given here) | – | – | – | decreased | significantly decreased | – | – | decreased | decreased | significantly decreased | – |
